We go through 21 molecules from patent publication US12134620B2 (ARAXES PHARMA LLC, priority 2018, dated 2024).

The target of this experiment is T1, KRAS G12C 1-169, his-tagged protein, GDP-loaded (Homo sapiens, UniProt P01116, G12C).
T1 construct: KRAS G12C 1-169, his-tagged protein, GDP-loaded; His tag
Nature of the experiment: Biochemical assay: covalent modification of KRAS G12C, analysed by mass spectrometry (RapidFire/TOF or Q-Exactive). Also: time not given here. Format: binding. The following applies: Modification activity, modification percentage from MS peak intensities. The essentials: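 Covalent adduct formation was quantified by intact-protein mass spectrometry, either TOF or C4 LC-Q Exactive Plus, as percent modified versus unmodified protein after deconvolution. Compounds at 8 or 32 μM final were incubated with 0.5 or 2 μM GDP-bound KRAS G12C(1-169)-His in Hepes/NaCl/MgCl2 buffer before acid quench.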
For the molecule `C=CC(=O)N1CC2(CCN(c3cnc(OCCc4ccccc4)c(-c4c(C)ccc5cnn(C)c45)c3C#N)C2)C1` [Compound I-222, 5-(2-acryloyl-2,6-diazaspiro[3.4]octan-6-yl)-3-(1,6-dimethyl-1H-indazol-7-yl)-2-phenethoxyisonicoti-nonitrile], the Binding % result is given as “++ (++ indicates binding activity from 50 to 85%)”.

For `C=CC(=O)N1CC2(CCN(c3cnc(Cc4ccccc4)c(-c4c(C)ccc5[nH]ncc45)c3C#N)C2)C1` [Compound I-223, 5-(2-acryloyl-2,6-diazaspiro[3.4]octan-6-yl)-2-benzyl-3-(5-methyl-1H-indazol-4-yl)isonicotinonitrile], the Binding % entry is “++ (++ indicates binding activity from 50 to 85%)”.

Consider `C=CC(=O)N1CC2(CCN(c3cnc(Cc4ccccc4)c(-c4c(C)ccc5cnn(C)c45)c3C#N)C2)C1` [Compound I-224], for which the Binding % entry is reported as “++ (++ indicates binding activity from 50 to 85%)”.

For `C=CC(=O)N1CC2(CCN(c3cnc(OCc4ccccc4)c(-c4c(C)ccc5cnn(C)c45)c3C#N)C2)C1` [Compound I-225, 5-(2-acryloyl-2,6-diazaspiro[3.4]octan-6-yl)-2-(benzyloxy)-3-(1,6-dimethyl-1H-indazol-7-yl)isonicotinonitrile], the Binding % entry is “++ (++ indicates binding activity from 50 to 85%)”.

For `C=CC(=O)N1CC2(CCN(c3cc(-c4c(C)ccc5cn[nH]c45)ncn3)C2)C1` [Compound I-226, 1-(6-(6-(6-methyl-1H-indazol-7-yl)pyrimidin-4-yl)-2,6-diazaspiro[3.4]octan-2-yl)prop-2-en-1-one], the Binding % entry was “+ (+ indicates binding activity greater than 0% and up to 50%)”.

With `C=CC(=O)N1CC2(CCN(c3ncnc(-c4c(C)ccc5cn[nH]c45)c3C#N)C2)C1` [Compound I-227, 4-(2-acryloyl-2,6-diazaspiro[3.4]octan-6-yl)-6-(6-methyl-1H-indazol-7-yl)pyrimidine-5-carbonitrile], the Binding % entry is “+ (+ indicates binding activity greater than 0% and up to 50%)”.

As for `C=CC(=O)N1CC2(CCN(c3ncnc(-c4c(O)cccc4F)c3C#N)C2)C1` [Compound I-228, 4-(2-acryloyl-2,6-diazaspiro[3.4]octan-6-yl)-6-(2-fluoro-6-hydroxyphenyl)pyri-midine-5-carbonitrile], the Binding % result was “+ (+ indicates binding activity greater than 0% and up to 50%)”.

Regarding `C=CC(=O)N1CC2(CCN(c3cc(-c4c(C)ccc5[nH]ncc45)ncn3)C2)C1` [Compound I-229, 1-(6-(6-(5-methyl-1H-indazol-4-yl)pyrimidin-4-yl)-2,6-diazaspiro[3.4]octan-2-yl)prop-2-en-1-one], the Binding % entry is “+ (+ indicates binding activity greater than 0% and up to 50%)”.

For `C=CC(=O)N1CC2(CCN(c3cc(-c4c(O)cccc4F)ncn3)C2)C1` [Compound I-230, 1-(6-(6-(2-fluoro-6-hydroxyphenyl)pyri-midin-4-yl)-2,6-diazaspiro[3.4]octan-2-yl)prop-2-en-1-one], the Binding % entry was “+ (+ indicates binding activity greater than 0% and up to 50%)”.

On to `C=CC(=O)N1CC2(CCN(c3ncnc(-c4c(C)ccc5[nH]ncc45)c3C#N)C2)C1` [Compound I-231, 4-(2-acryloyl-2,6-diazaspiro[3.4]octan-6-yl)-6-(5-methyl-1H-indazol-4-yl)pyrimidine-5-carbonitrile], for which the Binding % entry was “+ (+ indicates binding activity greater than 0% and up to 50%)”.

In the case of `C=CC(=O)N1CC2(CCN(c3ncnc(C#Cc4c(C)ccc5[nH]ncc45)c3C#N)C2)C1` [Compound I-232, 4-(2-acryloyl-2,6-diazaspiro[3.4]octan-6-yl)-6-((5-methyl-1H-indazol-4-yl)ethynyl)pyrimidine-5-carbonitrile], the Binding % result was “+ (+ indicates binding activity greater than 0% and up to 50%)”.

`C=CC(=O)N1CC2(CCN(c3ncnc(-c4cc(O)cc5ccccc45)c3C#N)C2)C1` [Compound I-233, 4-(2-acryloyl-2,6-diazaspiro[3.4]octan-6-yl)-6-(3-hydroxynaphthalen-1-yl)pyrimidine-5-carbonitrile]: the Binding % entry is “+ (+ indicates binding activity greater than 0% and up to 50%)”.

With `C=CC(=O)N1CC2(CCN(c3ncnc(-c4cc5cn[nH]c5cc4C)c3C#N)C2)C1` [Compound I-234, 4-(2-acryloyl-2,6-diazaspiro[3.4]octan-6-yl)-6-(6-methyl-1H-indazol-5-yl)pyrimidine-5-carbonitrile], the Binding % result is “+ (+ indicates binding activity greater than 0% and up to 50%)”.

For `C=CC(=O)N1CC2(CCN(c3ncnc(-c4cc5[nH]ncc5cc4C)c3C#N)C2)C1` [Compound I-235, 4-(2-acryloyl-2,6-diazaspiro[3.4]octan-6-yl)-6-(5-methyl-1H-indazol-6-yl)pyrimidine-5-carbonitrile], the Binding % entry is “+ (+ indicates binding activity greater than 0% and up to 50%)”.

Regarding `C=CC(=O)N1CC2(CCN(c3ncnc(-c4c(C)ccc5[nH]ncc45)c3C#N)CC2)C1` [Compound I-236, 4-(2-acryloyl-2,7-diazaspiro[3.5]nonan-7-yl)-6-(5-methyl-1H-indazol-4-yl)pyrimidine-5-carbonitrile], the Binding % entry is “+ (+ indicates binding activity greater than 0% and up to 50%)”.

In the case of `C=CC(=O)N1CC2(CCN(c3ncnc(-c4c(C)ccc5cn[nH]c45)c3C#N)CC2)C1` [Compound I-237, 4-(2-acryloyl-2,7-diazaspiro[3.5]ononan-7-yl)-6-(6-methyl-1H-indazol-7-yl)pyrimidine-5-carbonitrile], the Binding % result is “+ (+ indicates binding activity greater than 0% and up to 50%)”.

For the molecule `C=CC(=O)N1CC2(CCN(c3ncnc(-c4c(C)ccc5[nH]nc(C6CC6)c45)c3C#N)C2)C1` [Compound I-238, 4-(2-acryloyl-2,6-diazaspiro[3.4]octan-6-yl)-6-(3-cyclopropyl-5-methyl-1H-indazol-4-yl)pyrimidine-5-carbonitrile], the Binding % result is “+ (+ indicates binding activity greater than 0% and up to 50%)”.

On to `C=CC(=O)N1CC2(CCN(c3ncnc(-c4c(C)ccc5[nH]ncc45)c3F)C2)C1` [Compound I-239, 1-(6-(5-fluoro-6-(5-methyl-1H-indazol-4-yl)pyrimidin-4-yl)-2,6-diazaspiro[3.4]octan-2-yl)prop-2-en-1-one], for which the Binding % entry was “+ (+ indicates binding activity greater than 0% and up to 50%)”.

As for `C=CC(=O)N1CC2(CCN(c3ncnc(-c4c(O)cccc4F)c3C#N)CC2)C1` [Compound I-240, 4-(2-acryloyl-2,7-diazaspiro[3.5]nonan-7-yl)-6-(2-fluoro-6-hydroxyphenyl)pyri-midine-5-carbonitrile], the Binding % entry was “+ (+ indicates binding activity greater than 0% and up to 50%)”.

For `C=CC(=O)N1CC2(CCN(c3ncnc(-c4c(C)ccc5[nH]ncc45)c3CC#N)C2)C1` [Compound I-241, 2-(4-(2-acryloyl-2,6-diazaspiro[3.4]octan-6-yl)-6-(5-methyl-1H-indazol-4-yl)pyrimidin-5-yl)acetonitrile], the Binding % result is “+ (+ indicates binding activity greater than 0% and up to 50%)”.

For the molecule `C=CC(=O)N1CC2(CCN(c3ncnc(-c4c(C)ccc5[nH]nc(N)c45)c3C#N)C2)C1` [Compound I-242, 4-(2-acryloyl-2,6-diazaspiro[3.4]octan-6-yl)-6-(3-amino-5-methyl-1H-indazol-4-yl)pyrimidine-5-carbonitrile], the Binding % result is recorded as “++ (++ indicates binding activity from 50 to 85%)”.
